Data as given in patent US11661400B2, “NADPH oxidase inhibitors, pharmaceutical composition comprising the same, and application thereof” (TAIWANJ PHARMACEUTICALS CO., LTD., priority 2018, dated 2023).

Columns and labels:
NOX1 = target: T1, NOX1 (Homo sapiens, UniProt Q9Y5S8); experiment: NOX1 HT29 cell-based assay (luminol/HRP luminescence); conditions: HT-29, HT29 cells, DMSO = 0%, GKT137831 = 100%; for inhibition at 0.1 µM: 100 nM; for inhibition at 1 µM: 1000 nM
T1 construct: endogenous in cells; host or cells: HT29
T1 sequence (Q9Y5S8 1-564): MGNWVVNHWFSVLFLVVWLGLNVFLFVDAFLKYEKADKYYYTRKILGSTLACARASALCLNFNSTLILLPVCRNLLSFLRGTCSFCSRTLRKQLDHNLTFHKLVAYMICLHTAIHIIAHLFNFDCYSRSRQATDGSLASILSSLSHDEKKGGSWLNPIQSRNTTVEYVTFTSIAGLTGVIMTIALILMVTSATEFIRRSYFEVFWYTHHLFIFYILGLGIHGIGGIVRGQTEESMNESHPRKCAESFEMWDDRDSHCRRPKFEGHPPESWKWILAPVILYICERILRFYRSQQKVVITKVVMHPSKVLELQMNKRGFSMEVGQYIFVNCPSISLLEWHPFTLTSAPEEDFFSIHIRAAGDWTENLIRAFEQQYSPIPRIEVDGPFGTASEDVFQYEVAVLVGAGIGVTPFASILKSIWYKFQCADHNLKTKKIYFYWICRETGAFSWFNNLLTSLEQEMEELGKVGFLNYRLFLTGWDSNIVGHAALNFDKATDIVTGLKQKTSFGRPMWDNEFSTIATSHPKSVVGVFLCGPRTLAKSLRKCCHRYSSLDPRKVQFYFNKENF
T1 sequence (P13498 2-195 partner limits assumed): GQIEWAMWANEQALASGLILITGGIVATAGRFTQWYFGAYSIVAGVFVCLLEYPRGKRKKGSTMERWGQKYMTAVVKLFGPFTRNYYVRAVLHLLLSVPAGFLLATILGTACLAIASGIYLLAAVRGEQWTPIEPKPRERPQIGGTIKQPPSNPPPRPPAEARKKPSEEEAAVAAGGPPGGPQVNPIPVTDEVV
Method: NOX1 HT29 Cell-Based Assay:
HT29 cells were cultured in T75 flask (Corning) and when 70-80% confluence was reached, cells were trypsinized, harvested in HBSS and counted. 1-2×10^5 cells were dispensed into individual wells in 70 μl final volume (96-well plates, white Corning). Cells were treated for 30-60 mins at 37° C. with 10 μl of GKT137831, DMSO and test compounds from their respective assay plates. This will correspond to a final concentration of 100 nM, 1000 nM GKT137831 or test compounds, and 0.1% DMSO. 20 μL of a mixture containing 100 μM luminol plus 0.4 units of HRP (final concentration) was added. Luminescence was quantified using a SpectraMax i3 Multiplate reader (Molecular Devices, Sunnyvale, Calif., USA). As designed, compounds that inhibit NOX1 activity will reduce cellular ROS production, leading to reduced probe-ROS interactions and reduced well luminescence. Compounds were tested in duplicate at a concentration of 100 nM and 1000 nM. DMSO and GKT137831 wells were applied as negative and positive controls, and the activities measured were set to 0% and 100%, respectively.

NOX4 = target: T2, NOX4 (Homo sapiens, UniProt Q9NPH5); experiment: NOX4 HEK293 overexpression cell-based assay (Amplex Red H2O2); conditions: HEK293 cells stably overexpressing NOX4, DMSO = 0, GKT137831 = 100; for inhibition at 1 µM: HEK293, 1000 nM; for inhibition at 0.1 µM: HEK293, 100 nM
T2 construct: expressed in transfected cells
T2 sequence (Q9NPH5 1-578): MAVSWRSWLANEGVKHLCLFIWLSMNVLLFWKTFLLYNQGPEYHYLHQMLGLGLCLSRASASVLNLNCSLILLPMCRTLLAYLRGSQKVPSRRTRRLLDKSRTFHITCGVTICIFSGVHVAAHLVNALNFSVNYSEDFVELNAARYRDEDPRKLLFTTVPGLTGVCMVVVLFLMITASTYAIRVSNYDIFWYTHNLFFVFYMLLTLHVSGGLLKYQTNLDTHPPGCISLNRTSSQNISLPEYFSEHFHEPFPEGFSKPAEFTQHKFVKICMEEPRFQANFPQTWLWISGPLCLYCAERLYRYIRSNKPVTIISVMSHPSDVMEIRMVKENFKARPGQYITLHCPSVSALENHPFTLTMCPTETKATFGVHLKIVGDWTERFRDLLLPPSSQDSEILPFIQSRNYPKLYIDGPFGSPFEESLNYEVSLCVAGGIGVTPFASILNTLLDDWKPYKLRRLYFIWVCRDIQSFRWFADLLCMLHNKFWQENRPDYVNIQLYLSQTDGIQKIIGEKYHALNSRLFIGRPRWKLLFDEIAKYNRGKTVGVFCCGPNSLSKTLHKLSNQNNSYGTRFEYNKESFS
T2 sequence (P13498 2-195 partner limits assumed): T1 sequence (P13498 2-195 partner limits assumed)
Method: Extracellular H2O2 measurement using Amplex™ Red Hydrogen Peroxide/Peroxidase Assay Kit (Catalog number: A22188; Invitrogen, Carlsbad, Calif., USA) was used to detect extracellular H2O2 release by HEK293 cells stably overexpressing NOX4. NOX4 clonal cells in log-phase growth were trypsinized, washed, and dispersed thoroughly. Following trypsinization, the cells (3×10^4) were resuspended in 100 μL of 1× Krebs-Ringer phosphate glucose (KRPG) buffer containing various concentrations of GKT137831 or test compounds and incubated at 37° C. for 30 min. Cells were mixed with 100 μL of Amplex Red reagent solution containing 50 μM Amplex Red and 0.1 units/mL of HRP in KRPG buffer; each assay condition was evaluated induplicate. The samples were incubated at 37° C. for 90 mins in the dark, and then centrifuged at 2,500 g for 5 mins. The supernatants were loaded to a 96 well plate, and then measured using a SpectraMax i3 Multiplate reader (Molecular Devices, Sunnyvale, Calif., USA) at 530 nm excitation and 590 nm emission respectively. DMSO and GKT137831 wells were applied as negative and positive controls, and the activities measured were set to 0 and 100, respectively.

NOX2 = target: T3, NOX2 (Homo sapiens, UniProt P04839); experiment: NOX2 HL60 cell-based assay (PMA oxidative burst, L012 chemiluminescence); conditions: DMSO-differentiated HL-60 cells, PMA-stimulated; for inhibition at 0.1 µM: HL-60, 100 nM; for inhibition at 1 µM: HL-60, 1000 nM
T3 construct: HL-60 cells, rich in NOX2 expression; endogenous in cells; host or cells: DMSO-differentiated HL-60
T3 sequence (P04839 2-570 limits assumed): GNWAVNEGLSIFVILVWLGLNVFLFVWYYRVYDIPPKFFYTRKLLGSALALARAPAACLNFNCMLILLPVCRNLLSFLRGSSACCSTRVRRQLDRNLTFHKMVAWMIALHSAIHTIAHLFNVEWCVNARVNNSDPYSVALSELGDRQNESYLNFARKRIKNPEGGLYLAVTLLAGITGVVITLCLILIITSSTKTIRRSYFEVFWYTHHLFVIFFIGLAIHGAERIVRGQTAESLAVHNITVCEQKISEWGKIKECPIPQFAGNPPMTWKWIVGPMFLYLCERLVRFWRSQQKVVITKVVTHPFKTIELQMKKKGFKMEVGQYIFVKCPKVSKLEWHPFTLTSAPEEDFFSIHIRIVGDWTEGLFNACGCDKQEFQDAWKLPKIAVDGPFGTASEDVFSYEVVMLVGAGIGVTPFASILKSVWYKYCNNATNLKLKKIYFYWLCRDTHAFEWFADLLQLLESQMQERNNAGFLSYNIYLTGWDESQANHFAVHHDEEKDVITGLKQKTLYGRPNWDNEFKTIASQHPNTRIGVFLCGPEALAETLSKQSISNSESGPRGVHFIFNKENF
T3 sequence (P13498 2-195 partner limits assumed): T1 sequence (P13498 2-195 partner limits assumed)
Method: NOX2 HL60 Cell-Based Assay:
HL-60 cells, rich in NOX2 expression, was stimulated to undergo oxidative burst by phorbol myristate acetate (PMA). The ROS produced during this process was measured using the O2^−-specific chemiluminescent probe L012. L012 was added to DMSO-differentiated HL-60 cell suspensions to a final concentration of 100 μM. Then, 80 μL aliquots of cell suspension (2.5×10^5 cells) were transferred to individual wells of a 96-well plate. Test compounds were directly added to the wells at the specified concentrations. Following a 30-60 mins incubation at 37° C. in the dark, the oxidative burst was initiated by the addition of 10 ng/mL PMA, and the chemiluminescence signal was recorded every 5 min over a period of 60 mins in a SpectraMax i3 Multiplate reader (Molecular Devices, Sunnyvale, Calif., USA). • NOX4 HEK293 Overexpression Cell-Based Assay: […]

Row | inhibition at 0.1 µM (NOX1) [%] | inhibition at 1 µM (NOX1) [%] | inhibition at 1 µM (NOX4) [%] | inhibition at 0.1 µM (NOX2) [%] | inhibition at 1 µM (NOX2) [%] | inhibition at 0.1 µM (NOX4) [%] | SMILES | % Inhibition NOX4 (NOX4; 100 nM) | % Inhibition NOX2 (NOX2; 100 nM) | % Inhibition NOX2 (NOX2; 100 nM, 0.1 µM) | % Inhibition NOX4 (NOX4; 1000 nM) | % Inhibition NOX2 (NOX2; 1000 nM)
1 | ≥ 80 | ≥ 80 | ≥ 80 | ≤ 19 | 50 to 79 | – | CCOc1ccccc1-c1[nH]c2cc(OC)c(OC)cc2c(=O)c1O [Compound 21] | C (the percent of inhibition of NOX by the compounds ranges from 2000 to 49%) | – | – | – | –
2 | ≥ 80 | ≥ 80 | ≥ 80 | – | ≥ 80 | – | CCCOc1ccccc1-c1[nH]c2cc(OC)c(OC)cc2c(=O)c1O [Compound 22] | C (the percent of inhibition of NOX by the compounds ranges from 2000 to 49%) | C (the percent of inhibition of NOX by the compounds ranges from 2000 to 49%) | – | – | –
3 | ≥ 80 | ≥ 80 | 50 to 79 | 50 to 79 | ≥ 80 | 50 to 79 | COc1cc2[nH]c(-c3ccccc3S(C)(=O)=O)c(O)c(=O)c2cc1OC [Compound 23] | – | – | – | – | –
4 | ≥ 80 | ≥ 80 | 50 to 79 | – | ≥ 80 | – | COc1cc2[nH]c(-c3ccc(Cl)cc3Cl)c(O)c(=O)c2cc1OC [Compound 24] | C (the percent of inhibition of NOX by the compounds ranges from 2000 to 49%) | – | C (the percent of inhibition of NOX by the compounds ranges from 2000 to 49%) | – | –
5 | 50 to 79 | ≥ 80 | – | ≤ 19 | 50 to 79 | ≤ 19 | COc1ccccc1-c1[nH]c2cccc(Br)c2c(=O)c1O [Compound 25] | – | – | – | C (the percent of inhibition of NOX by the compounds ranges from 2000 to 49%) | –
6 | ≥ 80 | ≥ 80 | ≥ 80 | 50 to 79 | ≥ 80 | – | COc1ccccc1-c1[nH]c2cc3c(cc2c(=O)c1O)OCO3 [Compound 26] | C (the percent of inhibition of NOX by the compounds ranges from 2000 to 49%) | – | – | – | –
7 | ≥ 80 | ≥ 80 | ≥ 80 | ≤ 19 | ≥ 80 | – | COc1cc(Br)c(-c2[nH]c3cc(OC)c(OC)cc3c(=O)c2O)c(OC)c1 [Compound 27] | C (the percent of inhibition of NOX by the compounds ranges from 2000 to 49%) | – | – | – | –
8 | ≥ 80 | ≥ 80 | 50 to 79 | – | ≥ 80 | 50 to 79 | COc1cc2[nH]c(-c3ccccc3[N+](=O)[O-])c(O)c(=O)c2cc1OC [Compound 29, 3-hydroxy-6,7-dimethoxy-2-(2-nitrophenyl) quinolin-4(1H)-one 2,2,2-trifluoroacetate] | – | C (the percent of inhibition of NOX by the compounds ranges from 2000 to 49%) | – | – | –
9 | ≤ 19 | ≥ 80 | ≤ 19 | 50 to 79 | ≥ 80 | ≤ 19 | COc1cc2[nH]c(-c3ccccc3N)c(O)c(=O)c2cc1OC [Compound 30, 2-(2-aminophenyl)-3-hydroxy-6,7-dimethoxyquinolin-4(1H)-one] | – | – | – | – | –
10 | ≤ 19 | 50 to 79 | – | – | – | ≤ 19 | COc1ccc(C(=O)COC(=O)c2ccc3c(=O)c(O)c(-c4ccc(OC)cc4)[nH]c3c2)cc1 [Compound 32, 2-(4-methoxyphenyl)-2-oxoethyl 3-hydroxy-2-(4-methoxyphenyl)-4-oxo-1,4-dihydroquinoline-7-carboxylate 2,2,2-trifluoroacetate] | – | C (the percent of inhibition of NOX by the compounds ranges from 2000 to 49%) | – | C (the percent of inhibition of NOX by the compounds ranges from 2000 to 49%) | C (the percent of inhibition of NOX by the compounds ranges from 2000 to 49%)
